Source: publication PMC5107896 (Scientific Reports, 2016)
One block for each molecule: values may come before it.

How the values were obtained:
Assay type in all cases: biochemical
Factor Xa (F10) = Factor Xa (F10) (Homo sapiens, UniProt P00742); test: SensoLyte Rh110 Factor Xa Assay Kit (enzyme inhibition)
[1] = molecular target: T1, Monoamine oxidase A (MAOA) (Homo sapiens, UniProt P21397); test: in vitro MAOA inhibition assay (enzyme purchased)
T1 sequence (P21397 1-527): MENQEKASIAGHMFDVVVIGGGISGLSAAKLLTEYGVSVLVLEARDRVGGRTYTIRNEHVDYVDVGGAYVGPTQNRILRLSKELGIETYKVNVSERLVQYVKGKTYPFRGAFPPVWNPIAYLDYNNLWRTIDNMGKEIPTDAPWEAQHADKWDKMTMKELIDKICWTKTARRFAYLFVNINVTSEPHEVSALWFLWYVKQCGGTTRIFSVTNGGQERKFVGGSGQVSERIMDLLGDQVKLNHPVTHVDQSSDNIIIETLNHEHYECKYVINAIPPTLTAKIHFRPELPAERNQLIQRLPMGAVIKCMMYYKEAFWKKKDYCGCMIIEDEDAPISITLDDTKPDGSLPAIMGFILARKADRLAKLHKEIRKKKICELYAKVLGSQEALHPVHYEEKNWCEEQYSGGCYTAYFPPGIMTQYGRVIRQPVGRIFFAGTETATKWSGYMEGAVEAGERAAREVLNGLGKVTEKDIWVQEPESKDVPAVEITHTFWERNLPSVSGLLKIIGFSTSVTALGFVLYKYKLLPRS

[2] = molecular target: T2, Prostaglandin G/H synthase 2 (PTGS2/COX2) (Ovis aries, UniProt P79208); test: Colorimetric COX (ovine) inhibitor screening assay kit (Cayman)
T2 sequence (P79208 17-603): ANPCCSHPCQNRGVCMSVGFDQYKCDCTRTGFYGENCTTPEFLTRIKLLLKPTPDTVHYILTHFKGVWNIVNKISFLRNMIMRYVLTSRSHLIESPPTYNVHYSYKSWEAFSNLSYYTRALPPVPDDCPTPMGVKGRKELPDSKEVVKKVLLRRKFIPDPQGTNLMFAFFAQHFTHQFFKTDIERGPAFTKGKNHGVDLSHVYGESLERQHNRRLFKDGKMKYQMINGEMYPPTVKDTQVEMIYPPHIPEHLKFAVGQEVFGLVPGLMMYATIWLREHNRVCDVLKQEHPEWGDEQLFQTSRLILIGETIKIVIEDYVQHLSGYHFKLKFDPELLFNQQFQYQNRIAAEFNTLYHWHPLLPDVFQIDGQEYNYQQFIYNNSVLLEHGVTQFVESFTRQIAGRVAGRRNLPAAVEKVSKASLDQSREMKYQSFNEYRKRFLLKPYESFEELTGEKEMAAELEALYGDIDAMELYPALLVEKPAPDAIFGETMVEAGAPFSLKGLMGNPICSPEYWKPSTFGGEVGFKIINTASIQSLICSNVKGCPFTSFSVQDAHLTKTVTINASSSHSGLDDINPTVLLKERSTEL

Chain of Factor Xa (F10) (P00742 41-179): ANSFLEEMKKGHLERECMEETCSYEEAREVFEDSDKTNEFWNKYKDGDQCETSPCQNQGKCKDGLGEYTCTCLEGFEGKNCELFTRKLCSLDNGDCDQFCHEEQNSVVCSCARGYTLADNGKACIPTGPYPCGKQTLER
Chain of Factor Xa (F10) (P00742 235-488): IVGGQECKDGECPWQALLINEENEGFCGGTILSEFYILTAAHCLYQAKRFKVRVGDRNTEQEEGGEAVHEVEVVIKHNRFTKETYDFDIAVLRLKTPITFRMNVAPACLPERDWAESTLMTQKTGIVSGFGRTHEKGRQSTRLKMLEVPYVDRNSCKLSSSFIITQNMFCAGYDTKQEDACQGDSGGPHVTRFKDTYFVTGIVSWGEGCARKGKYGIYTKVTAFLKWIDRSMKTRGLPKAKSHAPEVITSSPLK

SMILES: O=C(/C=C/c1ccc(O)c(O)c1/C=C/c1ccc(O)c(O)c1)O[C@H](Cc1ccc(O)c(O)c1)C(=O)O [salvianolic acid A]
IC50 (Factor Xa (F10)): 90 nM

SMILES: O=c1cc(-c2ccc(O)c(O)c2)oc2cc(O)cc(O)c12 [luteolin]
IC50 [1]: 10 nM

IC50 [2]: 37400 nM
SMILES: O=c1c(O)c(-c2ccc(O)cc2)oc2cc(O)cc(O)c12 [kaempferol]
